Measurements as given in paper PMC6348443 (Journal of Medicinal Chemistry, 2018).
Structures can show the parent of a compound that is named as a salt.

Experiments:
DOR [1] = biological target: T1, DOR (Rattus norvegicus, UniProt P33533); test: competition radioligand binding, rat brain membranes, [3H][Ile5,6]deltorphin II; settings: rat brain membranes; read-out: opioid receptor binding Ki DOR
T1 construct: Membranes were prepared from Sprague-Dawley rat brains or guinea-pig brains according to the described procedures; tissue Labortierkunde und Laborgenetik, Medizinische Universität Wien; host or cells: Sprague-Dawley rat brain without cerebella
Procedure: (§1) Competition binding assays using rat brain (MOR and DOR) and guinea-pig brain (KOR) membranes (Table 1) were performed according to published procedures.[44],[49] […] In addition, we have assessed binding at the human opioid receptors stably transfected in Chinese hamster ovary (CHO) cells (Table S1).
(§2) Membranes were prepared from Sprague-Dawley rat brains or guinea-pig brains according to the described procedures.[44],[45] Brains without cerebella were homogenized on ice in 5 vol/wt of ice-cold 50 mM Tris-HCl buffer (pH 7.4) and diluted in 30 vol/wt of the same buffer. After centrifugation at 40 000g for 20 min at 4 °C, the pellets were resuspended in 30 vol/wt of 50 mM Tris-HCl buffer (pH 7.4) and incubated at 37 °C for 30 min. The centrifugation step described above was repeated, and the final pellets were resuspended in 5 vol/wt of 50 mM Tris-HCl buffer (pH 7.4) containing 0.32 M sucrose and stored at −80 °C until use.
(§3) Rat brain membranes were incubated with either [^3H]DAMGO (1 nM, 45 min, 35 °C) or [^3H][Ile^5,6]deltorphin II (0.5 nM, 45 min, 35 °C) for labeling MOR or DOR receptors, respectively. Guinea-pig brain membranes were incubated with [^3H]U69,593 (1 nM, 30 min, 30 °C) for labeling KOR. Binding assays with CHO cell membranes were conducted at 25 °C for 60 min using [^3H]DAMGO (1 nM) or [^3H]diprenorphine (0.2 nM) for labeling MOR or DOR, respectively. Nonspecific binding was determined using 10 μM naloxone (rodent brain) or 1–10 μM of the unlabeled counterpart of each radioligand (CHO cells). Reactions were terminated by rapid filtration through Whatman glass fiber GF/C filters. Filters were washed three times with 5 mL of ice-cold 50 mM Tris-HCl buffer (pH 7.4) using a Brandel M24R cell harvester (Gaithersburg, MD). Radioactivity retained on the filters was counted by liquid scintillation counting using a Beckman Coulter LS6500 (Beckman Coulter Inc., Fullerton, CA). All binding experiments were performed in duplicate and repeated at least three times.
(§4) Data were analyzed and graphically processed using the GraphPad Prism 5.0 Software (GraphPad Prism Software Inc., San Diego, CA). For in vitro assays, inhibition constant (Ki in nM), potency (EC50 in nM), and efficacy (% stimulation) values were determined from concentration–response curves by nonlinear regression analysis. The Ki values were determined by the method of Cheng and Prusoff.[66] In the [^35S]GTPγS binding assays, efficacy was determined relative to the reference full opioid agonists, DAMGO (MOR), DPDPE (DOR), and U69,593 (KOR). In vitro data are presented as mean ± SEM of three to four independent experiments each performed in duplicate. […] Each experimental group included six to seven mice. Data were statistically evaluated using one-way ANOVA with Tukey’s post hoc test for multiple comparisons with significance set at P < 0.05.

KOR [2] = biological target: T2, KOR (Cavia porcellus, UniProt P41144); test: competition radioligand binding, guinea-pig brain membranes, [3H]U69,593; settings: guinea-pig brain membranes; read-out: opioid receptor binding Ki KOR
T2 construct: Membranes were prepared from Sprague-Dawley rat brains or guinea-pig brains according to the described procedures; tissue Labortierkunde und Laborgenetik, Medizinische Universität Wien; host or cells: guinea-pig brain without cerebella
Procedure: as §1, §2, §3, §4

MOR [3] = biological target: T3, MOR (Homo sapiens, UniProt P35372); test: [35S]GTPγS binding assay, CHO-hMOR membranes; assay type: biochemical; settings: for Emax: relative to reference full agonist DAMGO, read-out: MOR % stim.
T3 construct: host or cells: CHO (CHO-hMOR)
Procedure: (§5) Efficacies are presented as percentage stimulation relative to the standard full agonists, [D-Ala^2,N-Me-Phe4,Gly-ol^5]enkephalin (DAMGO for MOR),[53] [D-Pen^2,D-Pen^5]enkephalin (DPDPE for DOR)[54] and N-methyl-2-phenyl-N-[(5R,7S,8S)-7-(pyrrolidin-1-yl)-1-oxaspiro[4.5]dec-8-yl]acetamide (U69,593 for KOR).[55]
(§6) Membranes from CHO cells expressing human opioid receptors were prepared in 50 mM Tris-HCl buffer (pH 7.7) according to a previously described procedure.[64] Cells expressing human opioid receptors grown at confluence were removed from the culture plates by scraping, homogenized in 50 mM Tris buffer (pH 7.7), using a Polytron homogenizer, then centrifuged once and washed by an additional centrifugation at 27 000g for 15 min, at 4 °C. The final pellet was resuspended in Tris buffer and stored at −80 °C until use. Protein content of brain and cell membrane preparation homogenates was determined by the method of Bradford using bovine serum albumin as the standard.[65]
(§7) Binding of [^35S]GTPγS to membranes from CHO cells stably expressing the human opioid receptors was conducted according to the published procedures.[49],[64] Cell membranes (5–10 μg) in 20 mM HEPES, 10 mM MgCl2, and 100 mM NaCl (pH 7.4) were incubated with 0.05 nM [^35S]GTPγS, 10 μM GDP, and various concentrations of test compound in a final volume of 1 mL, for 60 min at 25 °C. Nonspecific binding was determined using 10 μM GTPγS, and the basal binding was determined in the absence of test ligand. Samples are filtered over glass Whatman glass GF/B fiber filters and counted as described for binding assays. All experiments were performed in duplicate and repeated at least three times.
as §4

DOR [4] = biological target: T4, DOR (Homo sapiens, UniProt P41143); test: [35S]GTPγS binding assay, CHO-hDOR membranes; assay type: biochemical; settings: for EC50: [35S]GTPγS, CHO human DOR membranes; for Emax: relative to reference full agonist DPDPE, read-out: DOR % stim.
T4 construct: host or cells: CHO (CHO-hDOR)
Procedure: as §5, §6, §7, §4

KOR [5] = biological target: T5, KOR (Homo sapiens, UniProt P41145); test: [35S]GTPγS binding assay, CHO-hKOR membranes; assay type: biochemical; settings: for EC50: [35S]GTPγS, CHO human KOR membranes, read-out: KOR EC50; for Emax: relative to reference full agonist U69,593, read-out: KOR % stim.; for functional profile at KOR (full/partial agonist): partial agonist <85% of the response to U69,593
T5 construct: host or cells: CHO (CHO-hKOR)
Procedure: as §5, §6, §7, §4

DOR [6] = biological target: T4, DOR; test: competition radioligand binding, CHO cell membranes expressing human DOR, [3H]diprenorphine
Procedure: as §6, §3
(§8) aDetermined in competition radioligand binding assays using CHO cell membranes expressing
(§9) human MOR and DOR. Values represent the mean ± SEM of three independent experiments each

male CD1 mice = test: acetic acid-induced writhing assay after sc administration; assay type: in vivo, mouse; settings: for ED50: Mus musculus, 0.5 h, read-out: ED50 (95% CI), mice, sc, inhibition of writhing 30 min after drug administration
Procedure: Solutions of test compounds were prepared in sterile physiological 0.9% saline and further diluted to working doses in saline solution. Test compounds or saline (control) were administered by sc route in a volume of 10 μL/1 g of body weight. All doses are expressed in terms of salts. Separate groups of mice received the respective dose of compound, and individual mice were only used once for behavioral testing.
Writhing was induced in male CD1 mice by ip injection of a 0.6% acetic acid aqueous solution as described previously.[48],[62] Groups of mice were administered sc different doses of test compound or saline (control), and 5 min prior to testing (25 min after drug or saline), each animal received an ip injection of acetic acid solution. Each mouse was placed in individual transparent Plexiglas chambers, and the number of writhes was counted during a 10 min observation period. […] For the antagonism study, naloxone methiodide was sc co-administered with the respective opioid agonist, and writhing was assessed as described above.
as §4

MOR [7] = biological target: T3, MOR; test: competition radioligand binding, CHO cell membranes expressing human MOR, [3H]DAMGO
Procedure: as §6, §3, §8, §9

CO[C@@]12CC[C@H](NC(C)C(=O)O)[C@@H]3Oc4c(O)ccc5c4[C@@]31CCN(C)[C@@H]2C5 (stereo in doubt) [Compound 15a, (2S)-2-[(4,5α-Epoxy-3-hydroxy-14β-methoxy-17-methylmorphinan-6α-yl)amino]propanoic Acid Dihydrochloride]
Ki (DOR [1]): 10.4 ± 0.01 nM | Ki (KOR [2]): 71.5 ± 9.6 nM | Emax (MOR [3]): 100 ± 8% | EC50 (DOR [4]): 24.3 ± 5.3 nM | Emax (DOR [4]): 106 ± 7% | EC50 (KOR [5]): 254 ± 118 nM | Emax (KOR [5]): 67 ± 13% | Ki (DOR [6]): 14.9 ± 1.9 nM

CO[C@@]12CC[C@@H](NC(C)C(=O)O)[C@@H]3Oc4c(O)ccc5c4[C@@]31CCN(C)[C@@H]2C5 (stereo in doubt) [Compound 15b, (2S)-2-[(4,5α-Epoxy-3-hydroxy-14β-methoxy-17-methylmorphinan-6β-yl)amino]propanoic Acid Dihydrochloride]
Ki (DOR [1]): 11.3 ± 0.9 nM | Ki (KOR [2]): 142 ± 33 nM | Emax (MOR [3]): 102 ± 9% | increased agonist potency at DOR vs MOR (DOR [4]; [35S]GTPγS EC50): 2–4 times | EC50 (DOR [4]): 5.46 ± 2.68 nM | Emax (DOR [4]): 106 ± 6% | EC50 (KOR [5]): 1000 ± 192 nM | functional profile at KOR (full/partial agonist) (KOR [5]): full agonists | Emax (KOR [5]): 86 ± 2% | Ki (DOR [6]): 11.5 ± 2.6 nM

CO[C@@]12CC[C@H](NCC(=O)O)[C@@H]3Oc4c(O)ccc5c4[C@@]31CCN(C)[C@@H]2C5 [Compound 2a]
EC50 (MOR [3]; [35S]GTPγS, CHO human MOR membranes, read-out: MOR EC50): 1.16 ± 0.59 nM | Emax (MOR [3]): 99 ± 4% | EC50 (KOR [5]): 399 ± 119 nM | functional profile at KOR (full/partial agonist) (KOR [5]): full agonists | Emax (KOR [5]): 87 ± 4% | ED50 (male CD1 mice): 0.0357 mg/kg | Ki (MOR [7]): 0.79 ± 0.08 nM | Ki (DOR [6]): 18.2 ± 6.1 nM

CO[C@@]12CC[C@H](N[C@@H](C)C(=O)O)[C@@H]3Oc4c(O)ccc5c4[C@@]31CCN(C)[C@@H]2C5 [Compound 3a]
Emax (MOR [3]): 97 ± 5% | EC50 (DOR [4]): 9.55 ± 4.47 nM | Emax (DOR [4]): 93 ± 9% | EC50 (KOR [5]): 214 ± 71 nM | Emax (KOR [5]): 51 ± 3% | ED50 (male CD1 mice): < 0.02 mg/kg | ED50 (95% CI) (male CD1 mice; mice, inhibition of writhing 30 min after drug administration): 16.0 (5.45–47.0) μg/kg | increased antinociceptive potency vs comparator (male CD1 mice; writhing assay, 3a vs 3b, 4a vs 4b, 16b vs 7a (so in the source)): 5 times | Ki (DOR [6]): 26 ± 3.5 nM
